Where only a bound is given, the exact number is not on record here.

Holding throughout (assay): Generic kinase assay (33P-ATP, Myelin Basic Protein)
Format in all cases: biochemical

For one experiment, the target named is cRaf (Homo sapiens, UniProt P04049). The note with it: class symbol: % inhibition at 10 μM or IC50; for inhibition at 10 µM: 1 h, read-out: Inhibitory effect on target cRaf. As for the experimental part:
(§1) In order to determine the inhibitory effect of the compounds of the subject invention on various target enzymes a generic kinase assay was established.
(§2) Reactions were performed in 96-Well U-bottom microtiter plates (Greiner Bio-One; Frickenhausen/Germany, Cat. No. 650161), hereinafter designated “Assay Plates”. 10 μl of a solution comprising 40 μM Myelin Basic Protein (Invitrogen; Carlsbad, Calif./USA; Cat. No. 13228-010) and 4 μM ATP in three-fold concentrated Reaction Buffer (60 mM Tris-HCl, pH 7.5; 30 mM MgCl2; 3 mM dithiothreitol) were added into each well of the Assay Plate. 10 μl of serial dilutions of the compounds of the subject invention, dissolved in 4% DMSO, were then added into each well, except for Positive Control. Wells (C+ wells) and Negative Control Wells (C− wells). 10 μl of 4% DMSO without compounds were added to C+ and C− wells. 10 μl of a 500 mM solution of EDTA in water was then added to C− wells. Then 10 μl of a solution containing 50 μCi/ml Adenosine 5′-[γ-^33P]triphosphate in water was added to each well. To start the reaction 10 μl of the kinase to be assayed was added to each well. The optimal amount of kinase in the assay was determined to be the amount which yields to a turn-over of about 10% of ATP. Assay Plates were incubated for one hour at room temperature. Then 10 μl of a 500 mM solution of EDTA in water was added to each well except C− wells. Samples were now ready for measurement.
(§3) Measurements were preformed in 96-Well MAPH-Filter Plates (Millipore; Billerica, Mass./United States; Cat. No. MAPHNOB50), hereinafter designated “Measurement Plates”. Measurement Plates were washed with 200 μl of a 0.75% H3PO4 solution per well. The H3PO4 solution was exhausted using a Millipore vacuum station. 60 μl of a 0.75% H3PO4 solution was then added into each well, followed by the transfer of 30 μl of each well from the Assay Plate into the corresponding wells of the Measurement Plate. The Measurement Plate was incubated for 30 minutes at room temperature. Thereafter each well was washed three times with 200 μl of a 0.75% H3PO4 solution using a Millipore vacuum station. 20 μl of scintillation liquid (Supermix Liquid Szintillator; Perkin Elmer, Wellesley. Mass./United States; Cat. No. 1200-439) was then added to each well of the Measurement Plate. The plate was sealed and stored for 30 minutes in the darkness before radioactivity was quantified in a MicroBeta Scintillation Counter (Perkin Elmer, Wellesley. Mass./United States).

For another experiment, the target named is c-kit (Homo sapiens, UniProt P10721). The note with it: 1 h; class symbol: % inhibition at 10 μM or IC50; read-out: Inhibitory effect on target c-kit. On the procedure: as §1, §2, §3
Chain of c-kit (P10721 26-976): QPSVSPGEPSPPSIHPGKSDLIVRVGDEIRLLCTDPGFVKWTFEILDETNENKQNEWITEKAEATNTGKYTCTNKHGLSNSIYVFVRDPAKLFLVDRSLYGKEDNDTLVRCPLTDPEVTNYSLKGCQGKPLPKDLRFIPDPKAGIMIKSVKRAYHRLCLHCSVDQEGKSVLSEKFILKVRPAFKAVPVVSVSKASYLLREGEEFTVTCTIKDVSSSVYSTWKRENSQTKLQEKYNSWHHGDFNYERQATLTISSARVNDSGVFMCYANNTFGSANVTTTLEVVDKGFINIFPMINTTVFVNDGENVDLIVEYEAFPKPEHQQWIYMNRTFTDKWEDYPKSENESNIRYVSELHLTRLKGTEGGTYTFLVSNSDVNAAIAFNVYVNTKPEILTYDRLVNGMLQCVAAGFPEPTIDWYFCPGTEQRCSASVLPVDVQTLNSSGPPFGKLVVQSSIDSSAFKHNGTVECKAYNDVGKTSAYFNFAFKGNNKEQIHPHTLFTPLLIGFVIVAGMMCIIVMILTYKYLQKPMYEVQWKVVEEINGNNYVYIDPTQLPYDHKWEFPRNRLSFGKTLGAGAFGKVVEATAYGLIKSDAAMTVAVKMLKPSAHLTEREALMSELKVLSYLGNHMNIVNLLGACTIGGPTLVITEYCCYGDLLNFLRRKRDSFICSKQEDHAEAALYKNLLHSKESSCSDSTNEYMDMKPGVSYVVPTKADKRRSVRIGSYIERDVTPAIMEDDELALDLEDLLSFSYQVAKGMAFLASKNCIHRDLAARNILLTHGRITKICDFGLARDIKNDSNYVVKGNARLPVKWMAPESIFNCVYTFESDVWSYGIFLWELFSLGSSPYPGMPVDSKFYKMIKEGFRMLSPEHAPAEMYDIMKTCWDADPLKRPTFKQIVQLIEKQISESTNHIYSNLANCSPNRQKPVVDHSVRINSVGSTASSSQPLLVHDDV
In the next experiment the target is p56Lck (Homo sapiens, UniProt P06239). The note with it: class symbol: % inhibition at 10 μM or IC50; for inhibition at 10 µM: 1 h, read-out: Inhibitory effect on target p56Lck. On the procedure:
as §1, §2, §3

The target of the next experiment is RICK (Homo sapiens, UniProt O43353). As to conditions: class symbol: % inhibition at 10 μM or IC50. As for the experimental part:
as §1, §2, §3

The next experiment concerns the target EGFR (Homo sapiens, UniProt P00533). The note with it: class symbol: % inhibition at 10 μM or IC50. On the procedure: as §1, §2, §3
For another experiment, the system named is PDGFR. As to conditions: class symbol: % inhibition at 10 μM or IC50. As for the experimental part: as §1, §2, §3
The target of a further experiment is Abl (Homo sapiens, UniProt P00519). As to conditions: 1 h; class symbol: % inhibition at 10 μM or IC50; read-out: Inhibitory effect on target Abl. On the procedure: as §1, §2, §3
Chain of Abl (P00519 whole entry, species assumed): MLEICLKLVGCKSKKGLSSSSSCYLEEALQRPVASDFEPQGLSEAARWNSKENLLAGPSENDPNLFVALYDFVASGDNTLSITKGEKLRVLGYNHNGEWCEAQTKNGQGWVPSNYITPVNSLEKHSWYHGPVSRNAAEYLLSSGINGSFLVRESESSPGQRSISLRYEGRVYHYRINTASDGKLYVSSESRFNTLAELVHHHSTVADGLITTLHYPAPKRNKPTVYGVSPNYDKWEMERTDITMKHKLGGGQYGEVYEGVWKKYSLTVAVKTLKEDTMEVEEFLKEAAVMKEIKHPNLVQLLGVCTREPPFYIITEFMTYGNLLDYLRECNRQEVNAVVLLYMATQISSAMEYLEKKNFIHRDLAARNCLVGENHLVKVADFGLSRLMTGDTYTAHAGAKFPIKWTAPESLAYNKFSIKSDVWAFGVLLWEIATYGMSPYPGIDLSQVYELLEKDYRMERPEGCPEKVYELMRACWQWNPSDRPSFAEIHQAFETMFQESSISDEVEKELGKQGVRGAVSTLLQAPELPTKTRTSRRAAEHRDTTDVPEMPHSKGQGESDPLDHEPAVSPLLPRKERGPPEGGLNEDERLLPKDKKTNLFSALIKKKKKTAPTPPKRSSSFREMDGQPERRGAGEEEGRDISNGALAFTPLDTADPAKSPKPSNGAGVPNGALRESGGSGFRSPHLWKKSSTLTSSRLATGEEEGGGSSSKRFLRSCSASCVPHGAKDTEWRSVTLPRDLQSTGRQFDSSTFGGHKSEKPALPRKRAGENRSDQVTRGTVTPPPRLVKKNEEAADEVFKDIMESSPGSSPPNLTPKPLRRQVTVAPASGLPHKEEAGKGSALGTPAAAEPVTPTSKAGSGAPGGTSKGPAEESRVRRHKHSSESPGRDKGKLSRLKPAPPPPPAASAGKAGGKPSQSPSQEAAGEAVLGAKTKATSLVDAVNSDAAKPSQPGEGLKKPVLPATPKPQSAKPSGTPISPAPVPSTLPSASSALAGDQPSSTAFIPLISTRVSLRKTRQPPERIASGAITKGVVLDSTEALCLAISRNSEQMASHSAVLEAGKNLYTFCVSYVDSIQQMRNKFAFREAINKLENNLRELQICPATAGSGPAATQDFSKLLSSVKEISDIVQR

Chain of cRaf (P04049 whole entry, species assumed): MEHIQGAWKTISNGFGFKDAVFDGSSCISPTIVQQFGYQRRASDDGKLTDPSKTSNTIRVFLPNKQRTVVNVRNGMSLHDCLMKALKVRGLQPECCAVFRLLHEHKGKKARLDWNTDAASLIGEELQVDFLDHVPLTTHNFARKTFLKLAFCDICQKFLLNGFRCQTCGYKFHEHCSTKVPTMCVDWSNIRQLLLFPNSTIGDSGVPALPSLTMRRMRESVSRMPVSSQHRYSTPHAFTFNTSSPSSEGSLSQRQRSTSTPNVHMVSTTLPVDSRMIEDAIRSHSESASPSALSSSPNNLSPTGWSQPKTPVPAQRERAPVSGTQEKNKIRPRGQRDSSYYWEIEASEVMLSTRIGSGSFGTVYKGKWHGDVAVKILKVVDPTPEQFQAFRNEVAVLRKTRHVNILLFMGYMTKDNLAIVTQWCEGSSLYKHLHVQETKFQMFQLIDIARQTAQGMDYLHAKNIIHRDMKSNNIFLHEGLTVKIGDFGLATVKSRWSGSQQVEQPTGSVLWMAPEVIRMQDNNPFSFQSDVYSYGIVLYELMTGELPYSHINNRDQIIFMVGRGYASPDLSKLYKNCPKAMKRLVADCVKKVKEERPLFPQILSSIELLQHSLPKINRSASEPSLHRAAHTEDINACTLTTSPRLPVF
Chain of EGFR (P00533 25-1210, species assumed): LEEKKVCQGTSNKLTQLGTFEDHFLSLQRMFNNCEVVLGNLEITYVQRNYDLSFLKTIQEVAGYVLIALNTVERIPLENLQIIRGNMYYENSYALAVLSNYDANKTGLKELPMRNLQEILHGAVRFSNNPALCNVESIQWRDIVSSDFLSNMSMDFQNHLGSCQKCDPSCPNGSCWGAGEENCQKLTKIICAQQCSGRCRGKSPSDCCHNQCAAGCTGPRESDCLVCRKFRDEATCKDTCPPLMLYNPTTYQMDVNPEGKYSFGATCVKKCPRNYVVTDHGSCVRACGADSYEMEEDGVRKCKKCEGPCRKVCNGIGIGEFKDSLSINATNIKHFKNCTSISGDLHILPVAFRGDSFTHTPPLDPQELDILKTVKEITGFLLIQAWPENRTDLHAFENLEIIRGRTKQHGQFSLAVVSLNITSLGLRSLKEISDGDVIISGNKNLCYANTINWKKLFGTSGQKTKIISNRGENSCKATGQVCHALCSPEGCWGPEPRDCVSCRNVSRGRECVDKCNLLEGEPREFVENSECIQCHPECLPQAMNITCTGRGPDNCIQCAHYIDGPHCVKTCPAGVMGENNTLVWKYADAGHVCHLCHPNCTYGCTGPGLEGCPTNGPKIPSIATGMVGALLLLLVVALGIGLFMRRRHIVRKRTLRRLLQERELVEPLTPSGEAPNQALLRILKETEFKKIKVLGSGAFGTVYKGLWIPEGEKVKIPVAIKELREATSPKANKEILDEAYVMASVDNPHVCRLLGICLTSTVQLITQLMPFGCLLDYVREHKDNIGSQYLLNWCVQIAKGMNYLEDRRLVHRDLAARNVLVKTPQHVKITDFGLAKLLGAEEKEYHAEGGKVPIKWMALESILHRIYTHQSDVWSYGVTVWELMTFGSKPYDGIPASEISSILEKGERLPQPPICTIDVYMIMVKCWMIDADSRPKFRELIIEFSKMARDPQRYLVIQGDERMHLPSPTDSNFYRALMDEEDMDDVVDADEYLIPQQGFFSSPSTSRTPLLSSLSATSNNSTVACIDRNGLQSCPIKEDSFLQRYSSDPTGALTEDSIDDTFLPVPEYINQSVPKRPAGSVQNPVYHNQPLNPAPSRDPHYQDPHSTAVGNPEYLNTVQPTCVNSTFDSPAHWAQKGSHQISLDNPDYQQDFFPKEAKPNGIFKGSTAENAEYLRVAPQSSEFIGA
Chain of p56Lck (P06239 whole entry, species assumed): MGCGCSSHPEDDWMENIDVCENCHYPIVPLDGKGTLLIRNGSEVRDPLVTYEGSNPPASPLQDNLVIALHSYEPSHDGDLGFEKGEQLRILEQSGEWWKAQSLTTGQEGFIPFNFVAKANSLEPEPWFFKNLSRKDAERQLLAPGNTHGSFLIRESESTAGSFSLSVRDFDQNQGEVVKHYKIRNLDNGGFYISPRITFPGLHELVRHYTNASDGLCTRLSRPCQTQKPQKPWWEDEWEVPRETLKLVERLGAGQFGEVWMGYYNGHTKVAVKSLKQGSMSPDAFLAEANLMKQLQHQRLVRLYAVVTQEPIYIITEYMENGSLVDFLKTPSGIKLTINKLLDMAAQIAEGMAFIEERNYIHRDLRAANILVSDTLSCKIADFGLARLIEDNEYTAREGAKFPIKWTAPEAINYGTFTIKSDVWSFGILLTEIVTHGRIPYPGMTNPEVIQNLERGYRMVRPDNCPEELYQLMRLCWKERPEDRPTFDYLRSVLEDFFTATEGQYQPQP
Chain of RICK (O43353 whole entry, species assumed): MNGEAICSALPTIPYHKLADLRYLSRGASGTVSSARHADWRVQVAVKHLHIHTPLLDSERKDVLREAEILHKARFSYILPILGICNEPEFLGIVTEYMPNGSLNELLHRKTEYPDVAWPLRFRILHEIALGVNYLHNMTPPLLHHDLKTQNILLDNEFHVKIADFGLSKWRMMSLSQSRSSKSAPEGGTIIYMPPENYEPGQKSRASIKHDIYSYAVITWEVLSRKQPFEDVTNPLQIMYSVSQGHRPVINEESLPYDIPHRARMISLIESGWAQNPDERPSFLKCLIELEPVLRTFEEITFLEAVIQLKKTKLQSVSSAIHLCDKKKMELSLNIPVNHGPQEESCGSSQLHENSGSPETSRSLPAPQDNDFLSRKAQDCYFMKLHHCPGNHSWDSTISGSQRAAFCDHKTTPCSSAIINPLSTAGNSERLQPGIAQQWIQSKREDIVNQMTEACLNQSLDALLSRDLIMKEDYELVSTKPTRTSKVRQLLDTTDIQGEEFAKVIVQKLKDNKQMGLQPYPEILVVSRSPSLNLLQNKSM

Turning to `Oc1cccc(CNc2cncc(-c3cncnc3)c2)c1` [Compound 195, 3-[(5-Pyrimidin-5-yl-pyridin-3-ylamino)-methyl]-phenol], the inhibition at 10 µM on cRaf, on c-kit and on p56Lck was 50 to 90% throughout. The “Inhibitory effect on target RICK” value on RICK is “C (C: IC50 measured: <1 μM)”.

On to `O=C(NCCO)c1cccc(-c2cncc(NCc3cccc(O)c3)c2)c1` [Compound 217, 3-[5-(3-Hydroxy-benzylamino)-pyridin-3-yl]-N-(2-hydroxy-ethyl)-benzamide], for which the “Inhibitory effect on target EGFR” value at EGFR is “A (A: 50-90% inhibition at 10 μM enzyme concentration)”. Besides, the figures for the inhibition at 10 µM at c-kit, at Abl and at p56Lck were over 90%, 50 to 90% and over 90%, respectively. In addition, in the experiment with PDGFR, the “Inhibitory effect on target PDGFR” value was “A (A: 50-90% inhibition at 10 μM enzyme concentration)”. The “Inhibitory effect on target RICK” value on RICK is listed as “C (C: IC50 measured: <1 μM)”.

On to `CN(C)CCNC(=O)c1cccc(-c2cncc(NCc3cccc(O)c3)c2)c1` [Compound 224, N-(2-Dimethylamino-ethyl)-3-[5-(3-hydroxy-benzylamino)-pyridin-3-yl]-benzamide], for which the “Inhibitory effect on target EGFR” value at EGFR is given as “A (A: 50-90% inhibition at 10 μM enzyme concentration)”. Besides, the inhibition at 10 µM on c-kit, at Abl and at p56Lck was 50 to 90% throughout. The “Inhibitory effect on target PDGFR” value in the experiment on PDGFR is “A (A: 50-90% inhibition at 10 μM enzyme concentration)”. Also, at RICK, the “Inhibitory effect on target RICK” value is reported as “C (C: IC50 measured: <1 μM)”.

For the compound `CS(=O)(=O)Nc1cccc(-c2cncc(NCc3cccc(O)c3)c2)c1` [Compound 226, N-{3-[5-(3-Hydroxy-benzylamino)-pyridin-3-yl]-phenyl}-methanesulfonamide], the “Inhibitory effect on target EGFR” value at EGFR is given as “A (A: 50-90% inhibition at 10 μM enzyme concentration)”. Moreover, the inhibition at 10 µM was over 90% at c-kit, 50 to 90% at Abl and 50 to 90% on p56Lck. Besides, in the experiment with PDGFR, the “Inhibitory effect on target PDGFR” value was “A (A: 50-90% inhibition at 10 μM enzyme concentration)”. Moreover, the “Inhibitory effect on target RICK” value on RICK was “C (C: IC50 measured: <1 μM)”.

Turning to `CC(=O)Nc1cccc(-c2cncc(Nc3ccccc3)c2)c1` [Compound 194, N-[3-(5-Phenylamino-pyridin-3-yl)-phenyl]-acetamide], at c-kit, the inhibition at 10 µM was 50 to 90%. The “Inhibitory effect on target PDGFR” value in the experiment with PDGFR was “A (A: 50-90% inhibition at 10 μM enzyme concentration)”. For the same compound, the “Inhibitory effect on target RICK” value on RICK is listed as “C (C: IC50 measured: <1 μM)”.

Consider `Oc1cccc(CNc2cncc(-c3ccccc3)c2)c1` [Compound 238, 3-[(5-Phenyl-pyridin-3-ylamino)-methyl]-phenol], for which the inhibition at 10 µM at cRaf was 50 to 90%; at c-kit, over 90%; on Abl, 50 to 90%; on p56Lck, 50 to 90%. The “Inhibitory effect on target EGFR” value on EGFR is “A (A: 50-90% inhibition at 10 μM enzyme concentration)”. In addition, the “Inhibitory effect on target PDGFR” value in the experiment on PDGFR is “A (A: 50-90% inhibition at 10 μM enzyme concentration)”. For the same compound, the “Inhibitory effect on target RICK” value on RICK is given as “C (C: IC50 measured: <1 μM)”.

In the case of `Oc1cccc(CNc2cncc(-c3ccsc3)c2)c1` [Compound 228, 3-[(5-Thiophen-3-yl-pyridin-3-ylamino)-methyl]-phenol], the inhibition at 10 µM at c-kit lay in the range of 50 to 90%. Besides, the “Inhibitory effect on target PDGFR” value in the experiment with PDGFR is on record as “A (A: 50-90% inhibition at 10 μM enzyme concentration)”. Moreover, on RICK, the “Inhibitory effect on target RICK” value was “C (C: IC50 measured: <1 μM)”.

As for `COc1ccc(-c2cncc(NCc3cccc(O)c3)c2)cn1` [Compound 207, S—K6′-Methoxy-fS.S′lbipyridinyl-δ-ylaminoJ-mθthyll-phenol], the “Inhibitory effect on target p56Lck” value on p56Lck is given as “A (A: 50-90% inhibition at 10 μM enzyme concentration)”. Further, the “Inhibitory effect on target RICK” value on RICK was “C (C: IC50 measured: <1 μM)”.

Take `COc1ccc(Nc2cncc(-c3cccc(NC(C)=O)c3)c2)cc1` [Compound 227, N-{3-[5-(4-Methoxy-phenylamino)-pyridin-3-yl]-phenyl}-acetamide]: the inhibition at 10 µM at c-kit lay in the range of 50 to 90%. The “Inhibitory effect on target PDGFR” value with PDGFR is recorded as “A (A: 50-90% inhibition at 10 μM enzyme concentration)”. Further, the “Inhibitory effect on target RICK” value on RICK is “C (C: IC50 measured: <1 μM)”.

`COC(=O)c1cccc(CNc2cncc(-c3cccc(O)c3)c2)c1` [Compound 264, 3-{[5-(3-Hydroxy-phenyl)-pyridin-3-ylamino]mθthyl}-benzoic acid methyl ester]: on cRaf, the “Inhibitory effect on target cRaf” value was “A (A: 50-90% inhibition at 10 μM enzyme concentration)”. Also, the “Inhibitory effect on target EGFR” value on EGFR is “A (A: 50-90% inhibition at 10 μM enzyme concentration)”. Besides, the “Inhibitory effect on target PDGFR” value in the experiment on PDGFR is “A (A: 50-90% inhibition at 10 μM enzyme concentration)”. Moreover, at p56Lck, the “Inhibitory effect on target p56Lck” value is on record as “A (A: 50-90% inhibition at 10 μM enzyme concentration)”. In addition, at RICK, the “Inhibitory effect on target RICK” value is on record as “A (A: 50-90% inhibition at 10 μM enzyme concentration)”.

Regarding `COc1cncc(-c2cncc(NCc3cccc(O)c3)c2)c1` [Compound 222, 3-[(5′-Methoxy-[3,3′]bipyridinyl-5-ylamino)-methyl]-phenol], the inhibition at 10 µM at c-kit, at Abl and on p56Lck was 50 to 90% throughout. Also, the “Inhibitory effect on target PDGFR” value in the experiment on PDGFR is reported as “A (A: 50-90% inhibition at 10 μM enzyme concentration)”. Moreover, the “Inhibitory effect on target RICK” value at RICK is on record as “C (C: IC50 measured: <1 μM)”.

As for `Oc1cccc(CCNc2cncc(-c3cccc(O)c3)c2)c1` [Compound 244, 3-{5-[2-(3-Hydroxy-phenyl)-ethylamino]-pyridin-3-yl}-phenol], the “Inhibitory effect on target EGFR” value at EGFR is “B (B: >90% inhibition at 10 μM enzyme concentration)”. Moreover, the inhibition at 10 µM at c-kit, at Abl and at p56Lck was 50 to 90% throughout. Further, the “Inhibitory effect on target PDGFR” value in the experiment with PDGFR is reported as “A (A: 50-90% inhibition at 10 μM enzyme concentration)”. Moreover, the “Inhibitory effect on target RICK” value on RICK was “C (C: IC50 measured: <1 μM)”.

In the case of `CS(=O)(=O)c1ccc(-c2cncc(NCc3cccc(O)c3)c2)cc1` [Compound 206, 3-{[5-(4-Methanesulfonyl-phenyl)-pyridin-3-ylamino]-methyl}-phenol], the inhibition at 10 µM at c-kit and on p56Lck was 50 to 90% throughout. At RICK, the “Inhibitory effect on target RICK” value is recorded as “C (C: IC50 measured: <1 μM)”.

With `Oc1cccc(CNc2cncc(-c3cccnc3)c2)c1` [Compound 159, 3-([3,3′]Bipyridinyl-5-ylaminomethyl)-phenol], the “Inhibitory effect on target EGFR” value on EGFR is recorded as “A (A: 50-90% inhibition at 10 μM enzyme concentration)”. Besides, the inhibition at 10 µM on c-kit, on Abl and at p56Lck was 50 to 90% in each case. For the same compound, in the experiment on PDGFR, the “Inhibitory effect on target PDGFR” value is listed as “A (A: 50-90% inhibition at 10 μM enzyme concentration)”. The “Inhibitory effect on target RICK” value on RICK is reported as “C (C: IC50 measured: <1 μM)”.

For `Oc1cccc(CNc2cncc(-c3ccc(N4CCOCC4)cc3)c2)c1` [Compound 218, 3-{[5-(4-Morpholin-4-yl-phenyl)-pyridin-3-ylamino]-methyl}-phenol], the “Inhibitory effect on target EGFR” value at EGFR is “A (A: 50-90% inhibition at 10 μM enzyme concentration)”. For the same compound, the values for the inhibition at 10 µM at c-kit and at p56Lck were over 90% and 50 to 90%, respectively. For the same compound, the “Inhibitory effect on target PDGFR” value with PDGFR is listed as “A (A: 50-90% inhibition at 10 μM enzyme concentration)”. In addition, on RICK, the “Inhibitory effect on target RICK” value was “C (C: IC50 measured: <1 μM)”.
